pIC50: −log10 of the molar value.
target: SARS-CoV-2 Papain-Like Protease (PLpro) (Severe acute respiratory syndrome coronavirus 2 (2019-nCoV) (SARS-CoV-2), UniProt P0DTD1); assay: biochemical; details: PLpro enzymatic fluorescence assay; class symbols; read-out: PLpro IC50

With `Cc1ccc(OCC2CN(C)C2)cc1C(=O)NC1(c2cccc3ccccc23)CC1` [Compound 427, 2-Methyl-5-((1-methylazetidin-3-yl)methoxy)-N-(1-(naphthalen-1-yl)cyclopropyl)benzamide] the pIC50 was > 7.00.

same assay, conditions: SARS-CoV-2 PLpro enzymatic fluorescence assay; read-out: PLpro IC50

`Cc1cc(C2(NC(=O)c3cc(OCCN(C)C)ccc3C)CC2)c2ccccc2c1` [Compound 401, 5-(2-(Dimethylamino)ethoxy)-2-methyl-N-(1-(3-methylnaphthalen-1-yl)cyclopropyl)benzamide] and `CCSc1cc(C2(NC(=O)c3cc(OCCN(C)C)ccc3C)CC2)c2ccccc2c1` [Compound 408, 5-(2-(Dimethylamino)ethoxy)-N-(1-(3-(ethylthio)naphthalen-1-yl)cyclopropyl)-2-methylbenzamide] cannot be ordered by pIC50: > 7.00 for the first, > 7.00 for the second.

`Cc1ccc(OCC2CCN2C)cc1C(=O)NC1(c2cccc3cnccc23)CC1` (stereo not drawn) [Compound 402, N-(1-(Isoquinolin-5-yl)cyclopropyl)-2-methyl-5-((1-methylazetidin-2-yl)methoxy)benzamide] and `Cc1ccc(OCC2CCN2C)cc1C(=O)NC1(c2cccc3nc(Cl)ccc23)CC1` (stereo not drawn) [Compound 436, N-(1-(2-Chloroquinolin-5-yl)cyclopropyl)-2-methyl-5-((1-methylazetidin-2-yl)methoxy)benzamide] cannot be ordered by pIC50: > 7.00 for the first, > 7.00 for the second.

First: Cc1nc2cccc(C3(NC(=O)c4cc(OCCN(C)C)ccc4C)CC3)c2s1 [Compound 403, 5-(2-(Dimethylamino)ethoxy)-2-methyl-N-(1-(2-methylbenzo[d]thiazol-7-yl)cyclopropyl)benzamide]
Second: Cc1ccc(OCCN(C)C)cc1C(=O)NC1(c2cccc3ccc(O)cc23)CC1 [Compound 417, 5-(2-(Dimethylamino)ethoxy)-N-(1-(7-hydroxynaphthalen-1-yl)cyclopropyl)-2-methylbenzamide]
The pIC50 of the first is lower: 6.00 to 7.00 for the first, > 7.00 for the second.

First: Cc1ccc(OCC2(C)CCN2C)cc1C(=O)NC1(c2cccc3ccccc23)CC1 (stereo not drawn) [Compound 404, 5-((1,2-Dimethylazetidin-2-yl)methoxy)-2-methyl-N-(1-(naphthalen-1-yl)cyclopropyl)benzamide]
Second: CC(=O)NCCOc1ccc(C)c(C(=O)NC2(c3cccc4ccccc34)CC2)c1 [Compound 425, 5-(2-Acetamidoethoxy)-2-methyl-N-(1-(naphthalen-1-yl)cyclopropyl)benzamide]
The pIC50 of the first is higher: > 7.00 for the first, 6.00 to 7.00 for the second. The first is the more potent here.

`Cc1cc(C)c(C(=O)NC2(c3cccc4ccccc34)CC2)cc1OCCN(C)C` [Compound 405, 5-(2-(Dimethylamino)ethoxy)-2,4-dimethyl-N-(1-(naphthalen-1-yl)cyclopropyl)benzamide] and `Cc1ccc(N(C)CCN(C)C)cc1C(=O)NC1(c2cccc3ccccc23)CC1` [Compound 421] cannot be ordered by pIC50: > 7.00 for the first, > 7.00 for the second.

`Cc1ccc(C2CCNCC2)cc1C(=O)NC1(c2cccc3ccccc23)CC1` [Compound 407, 2-Methyl-N-(1-(naphthalen-1-yl)cyclopropyl)-5-(piperidin-4-yl)benzamide] and `Cc1ccc(C2CCNC2)cc1C(=O)NC1(c2cccc3ccccc23)CC1` (stereo not drawn) [Compound 413, 2-Methyl-N-(1-(naphthalen-1-yl)cyclopropyl)-5-(pyrrolidin-3-yl)benzamide] cannot be ordered by pIC50: > 7.00 for the first, > 7.00 for the second.

`Cc1ccc(OCCN(C)C)cc1C(=O)NC1(c2cncc3ccccc23)CC1` [Compound 409, 5-(2-(Dimethylamino)ethoxy)-N-(1-(isoquinolin-4-yl)cyclopropyl)-2-methylbenzamide] and `CC[S+]([O-])c1cc(C2(NC(=O)c3cc(OCCN(C)C)ccc3C)CC2)c2ccccc2c1` (stereo not drawn) [Compound 423, 5-(2-(Dimethylamino)ethoxy)-N-(1-(3-(ethylsulfinyl)naphthalen-1-yl)cyclopropyl)-2-methylbenzamide] cannot be ordered by pIC50: > 7.00 for the first, > 7.00 for the second.

`Cc1ccc(N2CCNCC2)cc1C(=O)NC1(c2cccc3ccccc23)CC1` [Compound 410, 2-Methyl-N-(1-(naphthalen-1-yl)cyclopropyl)-5-(piperazin-1-yl)benzamide] and `Cc1ccc(N2CCCNCC2)cc1C(=O)NC1(c2cccc3ccccc23)CC1` [Compound 411, 5-(1,4-Diazepan-1-yl)-2-methyl-N-(1-(naphthalen-1-yl)cyclopropyl)benzamide] cannot be ordered by pIC50: > 7.00 for the first, > 7.00 for the second.

First: Cc1ccc(NCCN(C)C)cc1C(=O)NC1(c2cccc3ccccc23)CC1 [Compound 412]
Second: COC(=O)CCc1ccc(C)c(C(=O)NC2(c3cccc4ccccc34)CC2)c1 [Compound 431, Methyl 3-(4-methyl-3-((1-(naphthalen-1-yl)cyclopropyl)carbamoyl)phenyl) propanoate]
The pIC50 of the first is higher: > 7.00 for the first, 6.00 to 7.00 for the second. The first is the more potent here.

First: Cc1ccc(OC[C@H]2C[C@H](O)CN2)cc1C(=O)NC1(c2cccc3ccccc23)CC1 [Compound 414, 5-(((2R,4S)-4-Hydroxypyrrolidin-2-yl)methoxy)-2-methyl-N-(1-(naphthalen-1-yl)cyclopropyl)benzamide]
Second: Cc1ccc(COC2CNC2)cc1C(=O)NC1(c2cccc3ccccc23)CC1 [Compound 435, 5-((Azetidin-3-yloxy)methyl)-2-methyl-N-(1-(naphthalen-1-yl)cyclopropyl)benzamide]
The pIC50 of the first is higher: > 7.00 for the first, 6.00 to 7.00 for the second.

First: Cc1ccc(OCCN(C)C)cc1C(=O)NC1(c2cccc3[nH]c4ccccc4c23)CC1 [Compound 415, N-(1-(9H-Carbazol-4-yl)cyclopropyl)-5-(2-(dimethylamino)ethoxy)-2-methylbenzamide]
Second: Cc1ccc(OCCN(C)C)cc1C(=O)NC1(c2cc(-c3cccs3)cc3ccccc23)CC1 [Compound 420, 5-(2-(Dimethylamino)ethoxy)-2-methyl-N-(1-(3-(thiophen-2-yl)naphthalen-1-yl)cyclopropyl)benzamide]
The pIC50 of the first is lower: 6.00 to 7.00 for the first, > 7.00 for the second. The second is the more potent here.

Compared with `Cc1ccc(N2CCN(C)CC2)cc1C(=O)NC1(c2cccc3ccccc23)CC1` [Compound 418, 2-Methyl-5-(4-methylpiperazin-1-yl)-N-(1-(naphthalen-1-yl)cyclopropyl)benzamide], `Cc1ccc(OCCNS(C)(=O)=O)cc1C(=O)NC1(c2cccc3ccccc23)CC1` [Compound 424, 2-Methyl-5-(2-(methylsulfonamido)ethoxy)-N-(1-(naphthalen-1-yl)cyclopropyl)benzamide] is lower in pIC50: > 7.00 for the first, 6.00 to 7.00 for the second.

`COc1cc(C2(NC(=O)c3cc(OC[C@@H]4CCCN4)ccc3C)CC2)c2ccccc2c1` [Compound 419, (S)-N-(1-(3-Methoxynaphthalen-1-yl)cyclopropyl)-2-methyl-5-(pyrrolidin-2-ylmethoxy)benzamide] and `Cc1ccc(OCC2CCN2C)cc1C(=O)NC1(c2cc(O)cc3ccccc23)CC1` (stereo not drawn) [Compound 433, N-(1-(3-Hydroxynaphthalen-1-yl)cyclopropyl)-2-methyl-5-((1-methylazetidin-2-yl)methoxy)benzamide] cannot be ordered by pIC50: > 7.00 for the first, > 7.00 for the second.

First: CNCc1nc2cc(C)c(C(=O)NC3(c4cccc5ccccc45)CC3)cc2o1 [Compound 426, 5-Methyl-2-((methylamino)methyl)-N-(1-(naphthalen-1-yl)cyclopropyl)benzo[d]oxazole-6-carboxamide]
Second: COc1cc(C2(NC(=O)c3cc(OCCN(C)C)ccc3C)CC2)c2cccnc2c1 [Compound 434, 5-(2-(Dimethylamino)ethoxy)-N-(1-(7-methoxyquinolin-5-yl)cyclopropyl)-2-methylbenzamide]
The pIC50 of the first is lower: 6.00 to 7.00 for the first, > 7.00 for the second. The second is the more potent here.

`Cc1ccc(OCC2CCN2C)cc1C(=O)NC1(c2cccc3c2OCCO3)CC1` (stereo not drawn) [Compound 432, N-(1-(2,3-Dihydrobenzo[b][1,4]dioxin-5-yl)cyclopropyl)-2-methyl-5-((1-methylazetidin-2-yl)methoxy)benzamide] gave a pIC50 of 6.00 to 7.00.
